Test results taken from US7745619B2, “Vinca derivatives” (priority 2003, dated 2010).

What was measured:
MCF-7 cells = experiment: MCF-7 GI50 determination (crystal violet growth inhibition); format: cell-based, human; settings: Homo sapiens, MCF7, 96 h, read-out: MCF-7 Cells GI50 (nM)
Summary of the method: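 MCF-7 cells seeded at 2×10^4 cells/well, grown 24 h drug-free, then exposed to 10-fold compound dilutions for 4 days. Glutaraldehyde-fixed cells stained with crystal violet, absorbance read at 570 nm; GI=100×(T/T0) against day-0 control OD, GI50 from growth inhibition versus concentration plots.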

HS 578T = experiment: NCI 60-cell line growth inhibition assay: HS 578T; format: cell-based; settings: Homo sapiens, Hs-578T
MCF7 = experiment: NCI 60-cell line growth inhibition assay: MCF7; format: cell-based; settings: Homo sapiens
MDA-MB-231/ATCC = experiment: NCI 60-cell line growth inhibition assay: MDA-MB-231/ATCC; format: cell-based; settings: Homo sapiens, MDA-MB-231
MDA-MB-435 = experiment: NCI 60-cell line growth inhibition assay: MDA-MB-435; format: cell-based; settings: Homo sapiens
SF-268 = experiment: NCI 60-cell line growth inhibition assay: SF-268; format: cell-based; settings: Homo sapiens, CNS
Source text: (§1) The following data in Table 4 summarize the growth inhibition properties of several compounds of the present invention against 60-human transformed cell lines.

SF-295 = experiment: NCI 60-cell line growth inhibition assay: SF-295; format: cell-based; settings: Homo sapiens
U251 = experiment: NCI 60-cell line growth inhibition assay: U251; format: cell-based; settings: Homo sapiens, U-251
COLO 205 = experiment: NCI 60-cell line growth inhibition assay: COLO 205; format: cell-based; settings: Homo sapiens
HCC-2998 = experiment: NCI 60-cell line growth inhibition assay: HCC-2998; format: cell-based; settings: Homo sapiens, HCC 2998
HCT-116 = experiment: NCI 60-cell line growth inhibition assay: HCT-116; format: cell-based; settings: Homo sapiens
HCT-15 = experiment: NCI 60-cell line growth inhibition assay: HCT-15; format: cell-based; settings: Homo sapiens
HT29 = experiment: NCI 60-cell line growth inhibition assay: HT29; format: cell-based; settings: Homo sapiens, HT-29
KM12 = experiment: NCI 60-cell line growth inhibition assay: KM12; format: cell-based; settings: Homo sapiens
CCRF-CEM = experiment: NCI 60-cell line growth inhibition assay: CCRF-CEM; format: cell-based; settings: Homo sapiens, Leukemia
Source text: as §1

MOLT-4 = experiment: NCI 60-cell line growth inhibition assay: MOLT-4; format: cell-based; settings: Homo sapiens
LOX IMVI = experiment: NCI 60-cell line growth inhibition assay: LOX IMVI; format: cell-based; settings: Homo sapiens
SK-MEL-5 = experiment: NCI 60-cell line growth inhibition assay: SK-MEL-5; format: cell-based; settings: Homo sapiens
UACC-62 = experiment: NCI 60-cell line growth inhibition assay: UACC-62; format: cell-based; settings: Homo sapiens
A549/ATCC = experiment: NCI 60-cell line growth inhibition assay: A549/ATCC; format: cell-based; settings: Homo sapiens, A549
EKVX = experiment: NCI 60-cell line growth inhibition assay: EKVX; format: cell-based; settings: Homo sapiens
HOP-92 = experiment: NCI 60-cell line growth inhibition assay: HOP-92; format: cell-based; settings: Homo sapiens
NCI-H460 = format: cell-based; settings: Homo sapiens
NCI-H522 = format: cell-based; settings: Homo sapiens
IGROV1 = experiment: NCI 60-cell line growth inhibition assay: IGROV1; format: cell-based; settings: Homo sapiens, IGROV-1, Ovarian
Source text: as §1

OVCAR-8 = experiment: NCI 60-cell line growth inhibition assay: OVCAR-8; format: cell-based; settings: Homo sapiens
SK-OV-3 = experiment: NCI 60-cell line growth inhibition assay: SK-OV-3; format: cell-based; settings: Homo sapiens
DU-145 = experiment: NCI 60-cell line growth inhibition assay: DU-145; format: cell-based; settings: Homo sapiens
PC-3 = experiment: NCI 60-cell line growth inhibition assay: PC-3; format: cell-based; settings: Homo sapiens
786-0 = experiment: NCI 60-cell line growth inhibition assay: 786-0; format: cell-based; settings: Homo sapiens
ACHN = experiment: NCI 60-cell line growth inhibition assay: ACHN; format: cell-based; settings: Homo sapiens
CAKI-1 = experiment: NCI 60-cell line growth inhibition assay: CAKI-1; format: cell-based; settings: Homo sapiens
SN12C = experiment: NCI 60-cell line growth inhibition assay: SN12C; format: cell-based; settings: Homo sapiens
TK-10 = experiment: NCI 60-cell line growth inhibition assay: TK-10; format: cell-based; settings: Homo sapiens

Structure (SMILES)	GI50 (MCF-7 cells) [nM]	GI50 (HS 578T) [nM]	GI50 (MCF7) [nM]	GI50 (MDA-MB-231/ATCC) [nM]	GI50 (MDA-MB-435) [nM]	GI50 (SF-268) [nM]	GI50 (SF-295) [nM]	GI50 (U251) [µM]	GI50 (COLO 205) [nM]	GI50 (HCC-2998) [nM]	GI50 (HCT-116) [nM]	GI50 (HCT-15) [nM]	GI50 (HT29) [nM]	GI50 (KM12) [nM]	GI50 (CCRF-CEM) [nM]	GI50 (MOLT-4) [nM]	GI50 (LOX IMVI) [nM]	GI50 (SK-MEL-5) [nM]	GI50 (UACC-62) [nM]	GI50 (A549/ATCC) [nM]	also measured
CC[C@]1(O)C[C@H]2CN(CCc3c([nH]c4ccc(C#Cc5ccccc5)cc34)[C@@](C(=O)OC)(c3cc4c(cc3OC)N(C)[C@H]3[C@@](O)(C(=O)OC)[C@H](OC(C)=O)[C@]5(CC)C=CCN6CC[C@]43[C@@H]65)C2)C1 [Example 19, 12′-(2-phenylethynyl) vinblastine]	800	1850	396	2020	60.5	731	293	9.97	1190	182	300	8350	423	206	263	196	> 100000	757	2040	37300	GI50 (EKVX): 2.79 µM; GI50 (HOP-92): 0.335 µM; GI50 (NCI-H460): 353 nM; GI50 (NCI-H522): 1810 nM; GI50 (IGROV1): 2210 nM; GI50 (OVCAR-8): 32200 nM; GI50 (SK-OV-3): 1880 nM; GI50 (DU-145): 2460 nM; GI50 (PC-3): 280 nM; GI50 (786-0): 889 nM; GI50 (ACHN): 22000 nM; GI50 (CAKI-1): 557 nM; GI50 (SN12C): 2470 nM; GI50 (TK-10): 313 nM
CCC1=C[C@H]2CN(CCc3c([nH]c4ccc(Br)cc34)[C@@](C(=O)OC)(c3cc4c(cc3OC)N(C)[C@H]3[C@@](O)(C(=O)OC)[C@H](OC(C)=O)[C@]5(CC)C=CCN6CC[C@]43[C@@H]65)C2)C1 [Example 97, 12′-bromoanhydro vinblastine]	50	< 10	< 10	< 10	< 10	< 10	< 10	< 0.01	< 10	< 10	< 10	< 10	< 10	< 10	< 10	< 10	< 10	< 10	< 10	< 10	GI50 (EKVX): 10.2 µM; GI50 (HOP-92): 12.2 µM; GI50 (NCI-H460): < 10 nM; GI50 (NCI-H522): < 10 nM; GI50 (IGROV1): < 10 nM; GI50 (OVCAR-8): < 10 nM; GI50 (SK-OV-3): < 10 nM; GI50 (DU-145): < 10 nM; GI50 (PC-3): < 10 nM; GI50 (786-0): < 10 nM; GI50 (ACHN): 64.1 nM; GI50 (CAKI-1): 589 nM; GI50 (SN12C): < 10 nM; GI50 (TK-10): < 10 nM
CCCC(=O)/C=C/c1ccc2[nH]c3c(c2c1)CCN1C[C@H](C[C@@](O)(CC)C1)C[C@]3(C(=O)OC)c1cc2c(cc1OC)N(C)[C@H]1[C@@](O)(C(=O)OC)[C@H](OC(C)=O)[C@]3(CC)C=CCN4CC[C@]21[C@@H]43 [Example 29, 12′-(3-oxohex-1-enyl)vinblastine]	515	628	10.5	< 10	34.3	901	568	< 0.01	< 10	< 10	< 10	274	< 10	212	28.8	11	< 10	420	< 10	28.7	GI50 (EKVX): 10.8 µM; GI50 (HOP-92): 9.93 µM; GI50 (NCI-H460): 176 nM; GI50 (NCI-H522): 31.4 nM; GI50 (IGROV1): 1710 nM; GI50 (OVCAR-8): 22.6 nM; GI50 (SK-OV-3): 16.9 nM; GI50 (DU-145): 15.2 nM; GI50 (PC-3): 44.2 nM; GI50 (786-0): < 10 nM; GI50 (ACHN): 93.7 nM; GI50 (CAKI-1): 1200 nM; GI50 (SN12C): < 10 nM; GI50 (TK-10): 3240 nM
